Several values for one entry are separate records, joined by “and”; a condition that tells them apart may be missing. Equal entries are not always repeated.
Legend:
[1] = tested on: arginine methylation in histone H2A, histone H4 and B-Raf in A549 cells; experiment: Western blot of symmetrical arginine dimethylation of PRMT5 substrates in cells; format: cell-based; conditions: 20 μM, SYM10 antibody
Method: (§1) Histones were purified as reported previously. Briefly, cells (1–5 x 10^6) or lung tumors (10–100 mg) were lysated using a glass dounce in 1 ml of 1x Passive Lysis Buffer (Promega) and nuclear pellets were collected by centrifugation at 3,000 rpm for 5 min at 4 °C. The supernatant was discard and the pellets were washed with 1 ml of 1x Passive Lysis Buffer. Nuclear pellets were resuspended in 0.4 ml of the buffer (10 mM Trs-HCl, pH7.9, 0.2 mM EDTA, 1 mM DTT, 20% glycerol, 0.42 M KCl) and incubate for 30 min on ice, and centrifuged at 12,000 rpm for 10 min at 4 °C. The supernatant (histones extract) was transferred to a new tube and histones were precipitated by 20% trichloroacetic acid.
Protein extracts or histones (20 μg) were subjected to 10% or 15% sodium dodecyl sulfate-polyacrylamide gel electrophoresis, respectively then transferred to Immobilon-P membranes (Millipore). The blots were then probed for 2 hours with the primary antibody at dilutions of 1:500 (anti-symmetrical dimethylated arginine, SYM10, EMD Millipore), 1:1,000 (anti-B Raf, ab65050, Abcam) or 1:1,000 (anti-PRMT5, Abcam). The blots were then incubated with a horseradish peroxide-conjugated secondary antibody (1:5,000; Fischer Scientific) for 1.5 h. Immunoreactive proteins were detected using an enhanced chemiluminescence detection system (GE Healthcare) per the manufacturer’s instructions. Protein concentrations were determined using the Bradford protein assay reagent (Bio-Rad).
A, The cellular permeability of identified compounds. Lung cancer A549 cells were cultured in the presence of various concentrations of compounds for 2h and the compound concentrations in the cell were determined by HPLC chromatography with a C18 column. B, The cellular stability of identified compounds. […] The compound concentrations in the cell were determined by HPLC chromatography with a C18 column. […] Histones were purified and analyzed by SDS-PAGE stained with Commassie blue (lanes 1–4, bottom) or by Western blot with anti-symmetric dimethyl arginine antibody (SYM10) (lanes 1–4, top). […]

[2] = tested on: CDK4/6 (Rb pS811) in A549 cells; experiment: Western blot of Rb phosphorylation at S811; format: cell-based; conditions: 20 μM, 4 h
Excerpt: (§2) The retinoblastoma protein (Rb) is phosphorylated by CKDs in cells.
(§3) (TIF) Click here for additional data file.

[3] = Plasma concentrations after administration, LC-MS/MS; format: in vivo, BALB/c mice; conditions: mouse
Method: Male BALB/c mice (8–10 weeks old) were purchased from Charles River Laboratory and were randomized for compound administration. Chemical compounds were dissolved in 0.1 ml of 0.5% (w/v) carboxymethycellulose (Sigma-Aldrich) plus 0.5% Tween 80 (Fisher Scientific) and administrated by oral gavage at the dosage of 50 mg/kg or 100 mg/kg. Mice were sacrificed and blood samples were collected immediately before (n = 5) and at 2 (n = 5), 4 (n = 5), 6 (n = 5) or 8 (n = 8) h after compound administration. Plasma samples were sent to the Pharmaceutical Development Center at MD Anderson Cancer Center for LC-MS/MS assay to determine compound concentrations.
Supplementary file pone.0181601.s001.tif: S1 Fig The serum concentrations of compound C9. The chemical compound was dissolved in 5% DMSO-0.5% Tween 80. BALB/c mice (8–10 weeks old) were randomized and administrated the vehicle (0.1 ml) or compound C9 dissolved in the vehicle (0.1 ml) by intraperitoneal (I.P.) injection at the dosage of 25, 50 or 100 mg/kg. Mice were sacrificed and blood samples were collected immediately before (0 h, n = 5) and at 2 (n = 5), 4 (n = 5), 6 (n = 5) and 8 (n = 5) h after compound administration. Plasma samples were sent to the Pharmaceutical Development Center at MD Anderson Cancer Center for LC-MS/MS assay to determine compound concentrations. (TIF) Click here for additional data file.

[4] = tested on: CDK2 (Rb pT821) in A549 cells; experiment: Western blot of Rb phosphorylation at T821; format: cell-based; conditions: 20 μM, 4 h
Excerpt: as §2, §3

[5] = tested on: PRMT5-target genes in A549 cells; experiment: Real-time PCR of PRMT5-regulated genes; format: cell-based; conditions: 50 μM, 24 hrs
Method: We identified a set of genes whose expression was altered by silencing PRMT5 expression in lung cancer A549 cells. A549 cells were treated with C9a and EPZ015666 and expression of 6 identified PRMT5-regulated genes was analyzed. […] The future study would use genome-wide approach to determine genes whose expression is affected by PRMT5 inhibitors.
Supplementary file pone.0181601.s005.tif: S5 Fig PRMT5 inhibitors selectively affect PRMT5-target genes in lung cancer cells. RNAs were isolated from cells cultured in the presence of DMSO, EPZ015666 (Sigma-Aldrich) (50 μM), or C9a (50 μM) for 24 hrs and submitted to RT-RCR analysis of gene expression in cancer cell lines. Relative mRNA levels = mRNA in cells treated with PRMT5-inhibtor/mRNA in DMSo-treated cells. (TIF) Click here for additional data file.

[6] = tested on: histone H2A arginine methylation in lung tumor xenografts; experiment: Western blot of histone symmetric dimethylarginine in lung tumors; format: in vivo, nude mice; conditions: 100 mg/kg oral, 21 days, SYM10 antibody
Method: as §1
Protein extracts or histones (20 μg) were subjected to 10% or 15% sodium dodecyl sulfate-polyacrylamide gel electrophoresis, respectively then transferred to Immobilon-P membranes (Millipore). […] Immunoreactive proteins were detected using an enhanced chemiluminescence detection system (GE Healthcare) per the manufacturer’s instructions. Protein concentrations were determined using the Bradford protein assay reagent (Bio-Rad).
Fig 9 The compound C9a inhibited growth of lung tumor xenografts in nude mice. […] Histones were isolated from tumors and analyzed by SDS-PAGE stained with Commassie blue R250 (bottom) or by Western blot with anti-symmetric dimethyl arginine antibody (SYM10) (top). […]

[7] = single replicate, vs control, actin-normalised

**Q.** For `CCn1c(=O)[nH]c2cc(C(=O)Nc3ccc(OC)cc3)ccc2c1=O` [Compound C5], which “arginine methylation in histone H2A, histone H4 and B-Raf” value [1] is on record?
**A.** significantly inhibited

**Q.** Which “arginine methylation in histone H2A, histone H4 and B-Raf” value [1] does the source give for `Cn1cc(C(c2ccc(O)c(O)c2O)c2cn(C)c3ccccc23)c2ccccc21` [Compound C11] here?
**A.** significantly inhibited

**Q.** Which “Rb phosphorylation at the site S811 by CDK4/6” value [2] does the source give for `COc1ccc(Nc2ncnc3c2cnn3Cc2ccc(C)cc2)cc1` [Compound C9] here?
**A.** failed to inhibit

**Q.** What about the “arginine methylation in histone H2A, histone H4 and B-Raf” value [1] of the same compound?
**A.** significantly inhibited

**Q.** What about the plasma concentration reached ([3]; intraperitoneal injection, 100 mg/kg) of the same compound?
**A.** 38 µM

**Q.** And the maximal plasma concentration ([3]; oral gavage, 100 mg/kg)?
**A.** 5.8 µM

**Q.** And the “Rb phosphorylation at the site T821 by CDK2” value [4]?
**A.** failed to inhibit

**Q.** Which results are given for `Nc1cccc(Nc2ncnc3c2cnn3Cc2ccccc2)c1` [Compound C9a]?
**A.** EXPRESSION FOLD CHANGE avg BTG2 ([5]; average): 1.857; EXPRESSION FOLD CHANGE avg FGFR1 ([5]; average): 0.9076; EXPRESSION FOLD CHANGE avg FOXO3 ([5]; average): 1.441; EXPRESSION FOLD CHANGE avg GLIPR1 ([5]; average): 6.032; EXPRESSION FOLD CHANGE avg PTTG1 ([5]; average): 1.0371; EXPRESSION FOLD CHANGE avg TIGAR ([5]; average): 1.502; EXPRESSION FOLD CHANGE BTG2 [5, 7]: 1.889 and 1.826 and 0.7777; EXPRESSION FOLD CHANGE FGFR1 [5, 7]: 0.9289 and 0.7185 and 1.075; EXPRESSION FOLD CHANGE FOXO3 [5, 7]: 1.695 and 1.429 and 1.452; EXPRESSION FOLD CHANGE GLIPR1 [5, 7]: 5.777 and 6.772 and 5.548; EXPRESSION FOLD CHANGE PTTG1 [5, 7]: 0.9706 and 1.104 and 1.215; EXPRESSION FOLD CHANGE TIGAR [5, 7]: 1.627 and 1.032 and 1.378; Rb phosphorylation at the site S811 by CDK4/6 [2]: failed to inhibit; oral drug availability compared to C9 ([3]; oral gavage): improved oral drug availability; Rb phosphorylation at the site T821 by CDK2 [4]: failed to inhibit; arginine methylation in histone H2A in lung tumors [6]: significantly inhibited
